Measured values as given in patent US20250122183A1 (Pfizer Inc., priority 2023, published 2025).

Tests used:
Type in all cases: biochemical
KAT6A Full length enzyme = KAT6A Full length enzyme (Homo sapiens (Human), UniProt Q92794); test: KAT6A assay (SAMDI-MS acetylation of H3 1-21 peptide); details: Morrison equation fit; replicate number in parentheses; read-out: KAT6A Ki (nM) (replicate number)
[1] = biological target: KAT7+BRPF1+EAF6+ING5 4 protein complex (Homo sapiens (Human), UniProt O95251); test: KAT7 BRPF1 assay (SAMDI-MS acetylation of H3 1-21 peptide); details: Morrison equation fit; replicate number in parentheses
[2] = biological target: KAT7+BRPF2+EAF6+ING5 4 protein complex (Homo sapiens (Human), UniProt O95251); test: KAT7 BRPF2 assay (SAMDI-MS acetylation of H3 1-21 peptide); details: Morrison equation fit; replicate number in parentheses; read-out: KAT7 BRPF2 Ki (nM) (replicate number)
[3] = biological target: KAT7+JADE1+EAF6+ING5 4 protein complex (Homo sapiens (Human), UniProt O95251); test: KAT7 JADE1 assay (SAMDI-MS acetylation of H3 1-21 peptide); details: Morrison equation fit; replicate number in parentheses; read-out: KAT7 JADE1 Ki (nM) (replicate number)
KAT8 Full length enzyme = KAT8 Full length enzyme (Homo sapiens (Human), UniProt Q9H7Z6); test: KAT8 assay (SAMDI-MS acetylation of H3 1-21 peptide); details: Morrison equation fit; replicate number in parentheses; read-out: KAT8 Ki (nM) (replicate number)
Chain of KAT8 Full length enzyme (Q9H7Z6 whole entry): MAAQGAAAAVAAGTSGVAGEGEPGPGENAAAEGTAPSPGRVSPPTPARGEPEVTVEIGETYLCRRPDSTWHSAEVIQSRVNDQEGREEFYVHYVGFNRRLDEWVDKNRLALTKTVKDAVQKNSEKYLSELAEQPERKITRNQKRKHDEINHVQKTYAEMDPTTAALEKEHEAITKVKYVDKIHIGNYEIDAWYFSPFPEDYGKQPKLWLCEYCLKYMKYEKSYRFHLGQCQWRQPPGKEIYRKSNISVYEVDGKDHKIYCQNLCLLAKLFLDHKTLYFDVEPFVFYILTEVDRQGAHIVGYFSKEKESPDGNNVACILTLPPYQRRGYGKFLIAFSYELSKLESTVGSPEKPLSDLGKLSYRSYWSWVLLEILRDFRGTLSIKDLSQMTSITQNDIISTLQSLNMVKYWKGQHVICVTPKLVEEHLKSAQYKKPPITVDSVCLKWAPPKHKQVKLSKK

KAT5 Full length enzyme = KAT5 Full length enzyme (Homo sapiens (Human), UniProt Q92993); test: KAT5 assay (SAMDI-MS acetylation of H4 1-21 peptide); details: Morrison equation fit; replicate number in parentheses; read-out: KAT5 Ki (nM) (replicate number)
Chain of KAT5 Full length enzyme (Q92993 whole entry): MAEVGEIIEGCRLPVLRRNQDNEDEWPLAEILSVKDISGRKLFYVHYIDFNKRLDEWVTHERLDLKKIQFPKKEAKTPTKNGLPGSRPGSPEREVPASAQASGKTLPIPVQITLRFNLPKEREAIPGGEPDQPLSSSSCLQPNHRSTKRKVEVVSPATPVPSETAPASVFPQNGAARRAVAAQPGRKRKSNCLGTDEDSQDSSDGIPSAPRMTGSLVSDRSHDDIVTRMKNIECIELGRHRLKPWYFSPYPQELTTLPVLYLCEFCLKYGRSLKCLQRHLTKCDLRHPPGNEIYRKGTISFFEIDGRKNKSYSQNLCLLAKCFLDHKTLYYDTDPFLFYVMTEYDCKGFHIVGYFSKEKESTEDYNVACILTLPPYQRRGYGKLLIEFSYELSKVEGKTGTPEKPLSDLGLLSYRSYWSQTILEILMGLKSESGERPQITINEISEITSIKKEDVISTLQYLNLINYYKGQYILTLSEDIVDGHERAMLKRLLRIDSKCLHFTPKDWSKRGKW

Chain of KAT6A Full length enzyme (Q92794 other isoform, or with tags, fused parts or gaps): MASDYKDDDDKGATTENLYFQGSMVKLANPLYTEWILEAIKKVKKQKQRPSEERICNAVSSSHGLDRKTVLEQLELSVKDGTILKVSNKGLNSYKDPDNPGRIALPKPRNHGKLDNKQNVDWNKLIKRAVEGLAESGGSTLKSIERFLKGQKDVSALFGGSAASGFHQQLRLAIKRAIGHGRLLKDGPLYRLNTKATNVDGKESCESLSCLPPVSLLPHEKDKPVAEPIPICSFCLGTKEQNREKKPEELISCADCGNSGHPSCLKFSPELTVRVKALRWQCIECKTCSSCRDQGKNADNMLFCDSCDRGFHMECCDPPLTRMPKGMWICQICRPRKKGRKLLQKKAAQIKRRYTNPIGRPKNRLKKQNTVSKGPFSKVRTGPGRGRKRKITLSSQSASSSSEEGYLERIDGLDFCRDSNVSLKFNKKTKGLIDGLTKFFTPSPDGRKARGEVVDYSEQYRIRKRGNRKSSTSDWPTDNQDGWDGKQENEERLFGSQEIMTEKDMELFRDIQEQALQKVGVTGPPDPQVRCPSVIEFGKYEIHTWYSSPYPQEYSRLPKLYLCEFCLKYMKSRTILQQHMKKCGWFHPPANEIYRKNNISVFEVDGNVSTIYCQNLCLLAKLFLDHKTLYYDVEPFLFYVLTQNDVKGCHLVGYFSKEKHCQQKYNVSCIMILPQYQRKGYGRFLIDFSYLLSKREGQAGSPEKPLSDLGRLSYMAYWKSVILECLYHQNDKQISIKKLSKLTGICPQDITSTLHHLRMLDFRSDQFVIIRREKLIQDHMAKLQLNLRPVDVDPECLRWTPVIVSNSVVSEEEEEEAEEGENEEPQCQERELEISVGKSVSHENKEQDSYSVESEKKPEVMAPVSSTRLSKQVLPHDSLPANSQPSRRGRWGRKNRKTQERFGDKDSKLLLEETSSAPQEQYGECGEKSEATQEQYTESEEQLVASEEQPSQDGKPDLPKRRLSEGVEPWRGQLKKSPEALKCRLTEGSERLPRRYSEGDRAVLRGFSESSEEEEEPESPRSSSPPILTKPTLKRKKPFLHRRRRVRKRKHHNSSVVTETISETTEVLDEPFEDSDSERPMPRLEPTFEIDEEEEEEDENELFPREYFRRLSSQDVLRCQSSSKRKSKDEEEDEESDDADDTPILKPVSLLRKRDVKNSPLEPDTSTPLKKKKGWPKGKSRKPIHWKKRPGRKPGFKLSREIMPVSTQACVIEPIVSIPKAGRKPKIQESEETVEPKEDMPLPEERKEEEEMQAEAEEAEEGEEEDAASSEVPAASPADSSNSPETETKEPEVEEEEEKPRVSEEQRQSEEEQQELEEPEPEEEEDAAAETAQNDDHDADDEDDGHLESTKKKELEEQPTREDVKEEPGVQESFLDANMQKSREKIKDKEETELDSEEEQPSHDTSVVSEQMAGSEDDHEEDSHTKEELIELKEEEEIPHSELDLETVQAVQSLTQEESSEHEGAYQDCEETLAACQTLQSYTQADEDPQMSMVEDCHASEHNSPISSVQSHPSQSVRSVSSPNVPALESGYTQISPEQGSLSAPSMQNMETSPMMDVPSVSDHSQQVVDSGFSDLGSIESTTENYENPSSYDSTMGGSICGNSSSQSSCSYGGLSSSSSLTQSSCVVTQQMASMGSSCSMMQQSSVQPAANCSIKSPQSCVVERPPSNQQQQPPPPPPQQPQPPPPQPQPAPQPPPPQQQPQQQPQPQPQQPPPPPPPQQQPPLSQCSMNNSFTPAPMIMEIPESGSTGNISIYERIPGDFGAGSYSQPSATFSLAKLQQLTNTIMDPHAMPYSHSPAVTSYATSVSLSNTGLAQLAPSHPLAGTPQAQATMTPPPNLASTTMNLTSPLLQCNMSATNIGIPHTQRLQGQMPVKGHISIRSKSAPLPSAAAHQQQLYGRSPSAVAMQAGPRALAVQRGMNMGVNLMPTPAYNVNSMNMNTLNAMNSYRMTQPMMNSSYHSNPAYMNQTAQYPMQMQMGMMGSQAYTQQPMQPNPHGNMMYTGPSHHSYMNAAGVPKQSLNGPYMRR

SMILES	Ki (KAT6A Full length enzyme) [nM]	Ki [1] [nM]	Ki [2] [nM]	Ki [3] [nM]	Ki (KAT8 Full length enzyme) [nM]	Ki (KAT5 Full length enzyme) [nM]
CCn1cnc(Nc2cc3onc(NS(=O)(=O)c4c(OC)cccc4OC)c3cc2OC)n1 [Example 41, N-{6-[(1-ethyl-1H-1,2,4-triazol-3-yl)amino]-5-methoxy-1,2-benzoxazol-3-yl}-2,6-dimethoxybenzene-1-sulfonamide]	6	25.6	94.2	359	> 16300	3390
CCn1cc(Nc2cc3onc(NS(=O)(=O)c4c(OC)cccc4OC)c3cc2OC)nn1 [Example 42, N-{6-[(1-ethyl-1H-1,2,3-triazol-4-yl)amino]-5-methoxy-1,2-benzoxazol-3-yl}-2,6-dimethoxybenzene-1-sulfonamide]	10.7	26.7	30.8	316	> 16300	7120
COc1cc(Nc2cc3onc(NS(=O)(=O)c4c(OC)cccc4OC)c3cc2OC)n[nH]1 [Example 44, 2,6-dimethoxy-N-{5-methoxy-6-[(5-methoxy-1H-pyrazol-3-yl)amino]-1,2-benzoxazol-3-yl}benzene-1-sulfonamide]	3.4	9.8	16.2	48.2	> 16300	1000
COc1cc2c(NS(=O)(=O)c3c(OC)cccc3OC)noc2cc1Nc1cc(C2CC2)n[nH]1 [Example 47, N-{6-[(3-cyclopropyl-1H-pyrazol-5-yl)amino]-5-methoxy-1,2-benzoxazol-3-yl}-2,6-dimethoxybenzene-1-sulfonamide]	0.8	1.9	2.2	5	1220	131
COc1cc2c(NS(=O)(=O)c3c(OC)cccc3OC)noc2cc1Nc1cc(C(C)C)n[nH]1 [Example 50, 2,6-dimethoxy-N-(5-methoxy-6-{[3-(propan-2-yl)-1H-pyrazol-5-yl]amino}-1,2-benzoxazol-3-yl)benzene-1-sulfonamide]	4.5	28.4	22.8	113	709	634
COc1cc2c(NS(=O)(=O)c3c(OC)cccc3OC)noc2cc1Nc1cc(C2CCNCC2)n[nH]1 [Example 56, 2,6-dimethoxy-N-(5-methoxy-6-{[3-(piperidin-4-yl)-1H-pyrazol-5-yl]amino}-1,2-benzoxazol-3-yl)benzene-1-sulfonamide]	3	157	512	594	7220	22200
COc1cc2c(NS(=O)(=O)c3ccc(C)cc3OCC(F)F)noc2cc1Nc1cc(C(C)C)[nH]n1 [Example 62, 2-(2,2-difluoroethoxy)-N-(5-methoxy-6-{[5-(propan-2-yl)-1H-pyrazol-3-yl]amino}-1,2-benzoxazol-3-yl)-4-methylbenzene-1-sulfonamide]	4.9	38.1	35.3	191	5340	750
CCOc1ccccc1S(=O)(=O)Nc1noc2cc(Nc3cc(C(C)C)[nH]n3)c(OC)cc12 [Example 63, 2-ethoxy-N-(5-methoxy-6-{[5-(propan-2-yl)-1H-pyrazol-3-yl]amino}-1,2-benzoxazol-3-yl)benzene-1-sulfonamide]	10.2	54.8	76.2	203	13000	436
COc1cc2c(NS(=O)(=O)c3ccc(C)cc3OCC(F)F)noc2cc1Nc1cc[nH]n1 [Example 64, 2-(2,2-difluoroethoxy)-N-{5-methoxy-6-[(1H-pyrazol-3-yl)amino]-1,2-benzoxazol-3-yl}-4-methylbenzene-1-sulfonamide]	0.2	146	144	136	550	48.1
COc1cc2c(NS(=O)(=O)c3ccccc3OC)noc2cc1Nc1cc(C(C)C)[nH]n1 [Example 65, 2-methoxy-N-(5-methoxy-6-{[5-(propan-2-yl)-1H-pyrazol-3-yl]amino}-1,2-benzoxazol-3-yl)benzene-1-sulfonamide]	8.6	57.4	85.4	206	> 13000	1280
CCOc1cc(C)c(F)cc1S(=O)(=O)Nc1noc2cc(Nc3cc[nH]n3)c(OC)cc12 [Example 77, 2-ethoxy-5-fluoro-N-{5-methoxy-6-[(1H-pyrazol-3-yl)amino]-1,2-benzoxazol-3-yl}-4-methylbenzene-1-sulfonamide]	0.6	76.1	162	213	2760	243
CCOc1cc(C)ccc1S(=O)(=O)Nc1noc2cc(Nc3cc(C(C)C)[nH]n3)c(OC)cc12 [Example 78, 2-ethoxy-N-(5-methoxy-6-{[5-(propan-2-yl)-1H-pyrazol-3-yl]amino}-1,2-benzoxazol-3-yl)-4-methylbenzene-1-sulfonamide]	2.5	40.2	54.4	109	8730	354
CCOc1cc(C)c(F)cc1S(=O)(=O)Nc1noc2cc(Nc3cc(C(C)C)[nH]n3)c(OC)cc12 [Example 79, 2-ethoxy-5-fluoro-N-(5-methoxy-6-{[5-(propan-2-yl)-1H-pyrazol-3-yl]amino}-1,2-benzoxazol-3-yl)-4-methylbenzene-1-sulfonamide]	5.1	25.2	26.5	119	6570	692
COc1cc2c(NS(=O)(=O)c3cc4c(cc3OC)CCCC4)noc2cc1Nc1cc(C)n[nH]1 [Example 82, 3-methoxy-N-{5-methoxy-6-[(3-methyl-1H-pyrazol-5-yl)amino]-1,2-benzoxazol-3-yl}-5,6,7,8-tetrahydronaphthalene-2-sulfonamide]	0.1	7.5	18.3	31.8	467	33.8
COc1cc2c(NS(=O)(=O)c3c(OC)cccc3OC)noc2cc1Nc1cc(C)n[nH]1 [Example 84, 2,6-dimethoxy-N-{5-methoxy-6-[(3-methyl-1H-pyrazol-5-yl)amino]-1,2-benzoxazol-3-yl}benzene-1-sulfonamide]	0.2	12.2	10.1	50.6	2970	82.3
COc1cc2c(NS(=O)(=O)c3c(OC)cc([C@H]4COCCO4)cc3OC)noc2cc1Nc1cc(C2CC2)[nH]n1 [Example 146]	0.9	2.4	1.7	3.2	865	31.4
